Results reported in ChEMBL document CHEMBL5257035, “Nucleoside Derived Antibiotics to Fight Microbial Drug Resistance: New Utilities for an Established Class of Drugs?” (J Med Chem, 2016).
≈ marks a conversion by molar mass, not a printed value.

How the values were obtained:
[1] = test system: Cryptococcus neoformans; test: Antifungal activity against Cryptococcus neoformans assessed as reduction in fungal growth; type: functional
[2] = test system: Coccidioides immitis; test: Antifungal activity against Coccidioides immitis assessed as reduction in fungal growth; type: functional
[3] = test system: Pseudomonas aeruginosa; test: Antibacterial activity against Pseudomonas aeruginosa assessed as bacterial growth inhibition; type: functional
[4] = test system: Staphylococcus aureus; test: Antibacterial activity against methicillin-resistant Staphylococcus aureus SR3637 assessed as reduction in bacterial growth inhibition; type: functional
[5] = test system: Pseudomonas aeruginosa; test: Antibacterial activity against Pseudomonas aeruginosa assessed as bacterial growth reduction; type: functional
[6] = test system: Cutaneotrichosporon cutaneum; test: Antifungal activity against Trichosporon cutaneum 3071 assessed as reduction in microbial growth inhibition for 48 hrs by broth microdilution assay; type: functional
[7] = test system: Candida albicans; test: Antifungal activity against Candida albicans SC5314 assessed as reduction in microbial growth inhibition incubated for 48 hrs by broth microdilution assay; type: functional
[8] = Cytotoxicity against human HepG2 cells assessed as reduction in cell viability incubated for 72 hrs by MTT assay; type: toxicity, cell-based
[9] = test system: Mycobacterium kansasii; test: Antimycobacterial activity against Mycobacterium kansasii assessed as microbial growth reduction; type: functional
[10] = test system: Mycobacterium avium; test: Antimycobacterial activity against Mycobacterium avium assessed as microbial growth reduction; type: functional
[11] = test system: Mycobacterium intracellulare; test: Antimycobacterial activity against Mycobacterium intracellulare assessed as microbial growth reduction; type: functional
[12] = test system: Escherichia coli; test: Antibacterial activity against Escherichia coli ATCC 25922 assessed as bacterial growth inhibition measured after 48 hrs by microdilution method; type: functional
[13] = target: T1, Phospho-N-acetylmuramoyl-pentapeptide-transferase (Escherichia coli K-12, UniProt P0A6W3); test: Inhibition of MraY in Escherichia coli K12
T1 sequence (P0A6W3 whole entry): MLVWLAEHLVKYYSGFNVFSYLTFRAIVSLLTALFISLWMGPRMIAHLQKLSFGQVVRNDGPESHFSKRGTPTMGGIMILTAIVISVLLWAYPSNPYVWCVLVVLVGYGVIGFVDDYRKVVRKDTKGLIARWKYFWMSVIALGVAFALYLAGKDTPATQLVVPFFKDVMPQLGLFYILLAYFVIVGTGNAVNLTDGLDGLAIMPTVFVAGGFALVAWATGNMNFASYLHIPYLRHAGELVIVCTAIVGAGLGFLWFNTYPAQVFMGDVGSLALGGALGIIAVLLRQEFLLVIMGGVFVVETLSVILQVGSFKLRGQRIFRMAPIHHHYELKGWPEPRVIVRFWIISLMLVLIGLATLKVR

[14] = test system: Mycolicibacterium smegmatis; test: Antibacterial activity against Mycobacterium smegmatis SANK75075 assessed as bacterial growth inhibition; type: functional

## N[C@@H](Cc1ccc(O)cc1)C(=O)N[C@H](C(=O)O)[C@@H]1C[C@@H](O)[C@@H](O)[C@H](n2ccc(=O)[nH]c2=O)O1
[1]
  MIC: 0.25 µg/mL (≈ 0.538 µM)
[2]
  MIC: 0.25 µg/mL (≈ 0.538 µM)

## N[C@@H](Cc1ccccc1)C(=O)N[C@H](C(=O)O)[C@@H]1C[C@@H](O)[C@@H](O)[C@H](n2ccc(=O)[nH]c2=O)O1
[1]
  MIC: 0.25 µg/mL (≈ 0.557 µM)
[2]
  MIC: 0.25 µg/mL (≈ 0.557 µM)

## NC(=O)c1ncn([C@@H]2O[C@H](CO)[C@@H](O)[C@H]2O)n1 [RIBAVIRIN]
[3]
  MIC: 3 µg/mL (≈ 12.3 µM)

## CCCCCCCCCCCCCC[C@@H](NC(=O)C(C)CCCNC(=N)N)C(=O)NC[C@@H]1CC[C@H]2[C@@H](C(=O)N1)[C@H]([C@H]1O[C@@H](n3ccc(=O)[nH]c3=O)[C@H](O)[C@@H]1O)ON2CCCN (some centres not stated)
[4]
  MIC: 8 µg/mL (≈ 9.27 µM)

## C[C@H](N)C(=O)N(C)[C@@H](C)[C@H](NC(=O)[C@H](Cc1ccccc1)NC(=O)N[C@@H](Cc1c[nH]c2ccccc12)C(=O)O)C(=O)NCC1C[C@@H](O)[C@H](n2ccc(=O)[nH]c2=O)O1 (some centres not stated)
[5]
  MIC: 16 µg/mL (≈ 20.3 µM)

## C[C@@H]([C@H](NC(=O)[C@H](Cc1ccccc1)NC(=O)N[C@@H](Cc1c[nH]c2ccccc12)C(=O)O)C(=O)NCC1C[C@@H](O)[C@H](n2ccc(=O)[nH]c2=O)O1)N(C)C(=O)[C@@H](N)Cc1ccc(O)cc1 (some centres not stated)
[5]
  MIC: 16 µg/mL (≈ 18.1 µM)

## C/C=C1\CN(C(=O)[C@@H](NC(=O)[C@@H](N)[C@H](O)[C@@H](O)COC(N)=O)[C@H]2O[C@@H](n3cc(CO)c(=O)[nH]c3=O)[C@H](O)[C@@H]2O)[C@H]1C(=O)O
[6]
  MIC: 256 µg/mL
[7]
  MIC: > 256 µg/mL

## CCCCCCCCCCCCCCC[C@H](NC(=O)[C@@H](NC(=O)N[C@H](C(=O)O)C(C)C)[C@@H]1CCNC(=N)N1)C(=O)NCCCNC(C(=O)O)[C@H](O[C@@H]1O[C@H](CN)[C@@H](O)[C@H]1O)[C@H]1O[C@@H](n2ccc(=O)[nH]c2=O)[C@H](O)[C@@H]1O (some centres not stated)
[8]
  IC50 at 72 h: > 100 µg/mL

## CCCCCCCCCCCC(=O)O[C@@H]1[C@H](OC)[C@@H]([C@@H](O[C@@H]2OC(C(=O)N[C@H]3CCC[C@@H](C)NC3=O)=C[C@@H](O)[C@H]2O)C(N)=O)O[C@H]1n1ccc(=O)[nH]c1=O
[9]
  MIC: 0.063 µg/mL (≈ 0.0823 µM)
[10]
  MIC: 0.063 µg/mL (≈ 0.0823 µM)
[11]
  MIC: 0.063 µg/mL (≈ 0.0823 µM)

## NC(=O)OC[C@H](O)[C@@H](O)[C@H](N)C(=O)N[C@H](C(=O)NC(CCC(=O)O)C(=O)O)[C@H]1O[C@@H](n2ccc(=O)[nH]c2=O)[C@H](O)[C@@H]1O (some centres not stated)
[6]
  MIC: 256 µg/mL
[7]
  MIC: > 256 µg/mL

## CCCCCCCNC[C@@H](O[C@@H]1O[C@H](CN)[C@@H](O)[C@H]1O)[C@H]1O[C@@H](n2ccc(=O)[nH]c2=O)[C@H](O)[C@@H]1O
[12]
  MIC: 2.5 µg/mL (≈ 4.97 µM)
[13]
  IC50: 330 nM

## CCCCCCCCCCCNC(=O)C1=C[C@@H](O)[C@@H](O)[C@H](O[C@@H](C(N)=O)[C@H]2O[C@@H](n3ccc(=O)[nH]c3=O)[C@H](O)[C@@H]2OC)O1
[14]
  MIC: 12.5 µg/mL (≈ 20.4 µM)

## C[C@@H]([C@H](NC(=O)[C@H](Cc1ccccc1)NC(=O)N[C@@H](Cc1c[nH]c2ccccc12)C(=O)O)C(=O)NCC1C[C@@H](O)[C@H](n2ccc(=O)[nH]c2=O)O1)N(C)C(=O)[C@@H](N)Cc1ccc(F)cc1 (some centres not stated)
[5]
  MIC: 16 µg/mL (≈ 18.1 µM)

## CC(C)C[C@H](NC(=O)N[C@@H](Cc1ccc(O)cc1)C(=O)O)C(=O)N[C@H](C(=O)NCC1C[C@@H](O)[C@H](n2ccc(=O)[nH]c2=O)O1)[C@H](C)N(C)C(=O)[C@H](C)N (some centres not stated)
[5]
  MIC: 16 µg/mL (≈ 21.8 µM)

## CC(C)[C@H](NC(=O)N[C@H](C(=O)N[C@@H](CCCCCCCc1ccc(-c2ccccc2)cc1)C(=O)NCCCNC(C(=O)O)[C@H](O[C@@H]1O[C@H](CN)[C@@H](O)[C@H]1O)[C@H]1O[C@@H](n2ccc(=O)[nH]c2=O)[C@H](O)[C@@H]1O)[C@@H]1CCNC(=N)N1)C(=O)O (some centres not stated)
[8]
  IC50 at 72 h: > 100 µg/mL

## CCCCCCCCCC(=O)O[C@@H]1[C@H](OC)[C@@H]([C@@H](O[C@@H]2OC(C(=O)N[C@H]3CCC[C@@H](C)NC3=O)=C[C@@H](O)[C@H]2O)C(N)=O)O[C@H]1n1ccc(=O)[nH]c1=O
[9]
  MIC: 0.063 µg/mL (≈ 0.0854 µM)
[10]
  MIC: 0.063 µg/mL (≈ 0.0854 µM)
[11]
  MIC: 0.063 µg/mL (≈ 0.0854 µM)

## CCCCCCCCCNC(=O)C1=C[C@@H](O)[C@@H](O)[C@H](O[C@@H](C(N)=O)[C@H]2O[C@@H](n3ccc(=O)[nH]c3=O)[C@H](O)[C@@H]2OC)O1
[14]
  MIC: 12.5 µg/mL (≈ 21.4 µM)

## CCCCNC(=O)C1=C[C@@H](O)[C@@H](O)[C@H](O[C@@H](C(N)=O)[C@H]2O[C@@H](n3ccc(=O)[nH]c3=O)[C@H](O)[C@@H]2OC)O1
[14]
  MIC: 12.5 µg/mL (≈ 24.3 µM)
